Experiment [1] concerns the target T1, Human Tryptophan 2,3-dioxygenase (TDO) (Homo sapiens, UniProt P48775).
T1 construct: His tag (N); made in house; host or cells: E. coli
Kind of experiment: Human TDO enzymatic assay (kynurenine level). The format is biochemical. Conditions: 1 nM TDO, 350 μM L-Trp; geometric mean; read-out: TDO GMean: IC50 (μM) (Biochemical Assay). In outline: (§1)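 Kynurenine formed is measured after TCA quench and 50 °C hydrolysis, with % inhibition against full-reaction and no-enzyme controls (5% DMSO). IDO: 6 nM enzyme, 10 μM L-Trp, 5 μM methylene blue, 20 min; TDO: 1 nM, 350 μM L-Trp, 0.4 μM methylene blue, 70 min; both pH 6.5, room temp, E. coli-expressed His-tagged.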

For experiment [2], the target named is T2, Human Indoleamine 2,3-dioxygenase (IDO) (Homo sapiens, UniProt P14902).
T2 construct: His tag (N); made in house; host or cells: E. coli
Kind of experiment: Human IDO enzymatic assay (kynurenine level). The format is biochemical. As to conditions: 6 nM IDO, 10 μM L-Trp; geometric mean; read-out: IDO1 GMean: IC50 (μM) (Biochemical Assay). In outline: as §1

Experiment [3] addresses T3, human IDO (IDO1-expressing HEK293 cells) (Homo sapiens, UniProt P14902).
T3 construct: expressed in transfected cells
Kind of experiment: Cell based kynurenine assay, IDO1-expressing HEK293 cell clones. Conditions: IDO1-expressing HEK293 cells, geometric mean, read-out: HEK293 IDO1 Kynurenine GMean IC50 (μM) (Cellular Assay). The procedure, abridged: (§2)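 IC50 values come from nonlinear regression of kynurenine reduction in supernatants of human IDO1- or TDO-expressing HEK293 cells incubated 24 h with serially diluted compounds, normalised to cell and media-only controls containing 0.2% DMSO.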

Experiment [4] has as its target T4, human TDO (TDO-expressing HEK293 cells) (Homo sapiens, UniProt P48775).
T4 construct: expressed in transfected cells
In words: Cell based kynurenine assay, TDO-expressing HEK293 cell clones. Conditions: TDO-expressing HEK293 cells, geometric mean, read-out: HEK293 TDO Kynurenine GMean IC50 (μM) (Cellular Assay). The procedure, abridged:
as §2

Data on 22 compounds can be found in patent US10508085B2, “Compounds and methods for IDO and TDO modulation, and indications therefor” (Plexxikon Inc., priority 2016, dated 2019).

Like-named read-outs stand apart in the source and are kept apart here.

By IC50 is commonly meant the concentration at which inhibition is half-maximal.

T1 sequence (P48775 whole entry): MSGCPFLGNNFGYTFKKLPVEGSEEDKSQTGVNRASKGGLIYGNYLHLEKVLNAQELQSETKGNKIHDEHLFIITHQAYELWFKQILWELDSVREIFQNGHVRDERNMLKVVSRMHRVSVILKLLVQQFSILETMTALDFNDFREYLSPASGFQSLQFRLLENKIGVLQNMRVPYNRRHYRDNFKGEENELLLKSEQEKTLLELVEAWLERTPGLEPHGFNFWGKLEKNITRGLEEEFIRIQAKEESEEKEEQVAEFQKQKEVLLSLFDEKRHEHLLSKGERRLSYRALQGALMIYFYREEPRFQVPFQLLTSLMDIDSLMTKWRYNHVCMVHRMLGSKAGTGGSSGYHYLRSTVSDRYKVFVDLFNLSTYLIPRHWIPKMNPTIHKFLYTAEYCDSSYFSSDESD
T4 sequence (P48775 whole entry): as above
T2 sequence (P14902 whole entry): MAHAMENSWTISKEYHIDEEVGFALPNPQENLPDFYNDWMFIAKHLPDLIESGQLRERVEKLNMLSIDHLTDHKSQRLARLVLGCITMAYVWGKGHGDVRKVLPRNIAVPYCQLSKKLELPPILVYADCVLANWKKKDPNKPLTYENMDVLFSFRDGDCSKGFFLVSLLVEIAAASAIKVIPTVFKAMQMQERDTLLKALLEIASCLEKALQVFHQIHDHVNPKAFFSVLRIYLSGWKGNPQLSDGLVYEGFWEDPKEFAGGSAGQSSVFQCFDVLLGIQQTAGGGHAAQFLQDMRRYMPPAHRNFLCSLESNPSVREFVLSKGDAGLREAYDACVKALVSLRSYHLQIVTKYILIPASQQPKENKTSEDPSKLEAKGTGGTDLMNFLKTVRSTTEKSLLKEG
T3 sequence (P14902 whole entry): as above

Consider `CC(C)(C1CCN(C(=O)Nc2ccccc2)CC1)C(O)c1cc(Cl)cc2cn[nH]c12` (stereo not shown) [Compound P-0317, 4-(1-(5-chloro-1H-indazol-7-yl)-1-hydroxy-2-methylpropan-2-yl)-N-phenylpiperidine-1-carboxamide], for which the IC50 in experiment [1], in experiment [2], in experiment [3] (24 hours incubation) and in experiment [4] (24 hours incubation) was 0.0001 to 10 µM in each case.

As to `COCC(=O)N1CCC(C(F)(F)C(O)c2c(F)c(Cl)cc3cn[nH]c23)CC1` (stereo not shown) [Compound P-0376, 1-(4-(2-(5-chloro-6-fluoro-1H-indazol-7-yl)-1,1-difluoro-2-hydroxyethyl)piperidin-1-yl)-2-methoxyethan-1-one], the half-maximal inhibitory concentration (IC50) in experiment [1], in experiment [2], in experiment [3] (24 hours incubation) and in experiment [4] (24 hours incubation) was 0.0001 to 10 µM each time.

For `O[C@H](c1c(F)c(Cl)cc2cn[nH]c12)C12CCC(CC1)CC2` [Compound P-0334, (S)-bicyclo[2.2.2]octan-1-yl(5-chloro-6-fluoro-1H-indazol-7-yl)methanol], the IC50 in experiment [1], in experiment [2], in experiment [3] (24 hours incubation) and in experiment [4] (24 hours incubation) was 0.0001 to 10 µM in each case.

As for `CC(C)(C1CCN(S(=O)(=O)C2CC2)CC1)C(O)c1cc(Cl)cc2cn[nH]c12` (stereo not shown) [Compound P-0306], the IC50 in experiment [1], in experiment [2], in experiment [3] (24 hours incubation) and in experiment [4] (24 hours incubation) was 0.0001 to 10 µM each time.

With `Cc1ccc(NC(=O)N2CCC(C(C)(C)C(O)c3cc(Cl)cc4cn[nH]c34)CC2)cc1Cl` (stereo not shown) [Compound P-0394, 4-(1-(5-chloro-1H-indazol-7-yl)-1-hydroxy-2-methylpropan-2-yl)-N-(3-chloro-4-methylphenyl) piperidine-1-carboxamide], the IC50 in experiment [1], in experiment [2], in experiment [3] (24 hours incubation) and in experiment [4] (24 hours incubation) was 0.0001 to 10 µM in each case.

In the case of `O=C(CC1CCS(=O)(=O)CC1)N1CCC(C(F)(F)C(O)c2cc(Cl)cc3cn[nH]c23)CC1` (stereo not shown) [Compound P-0481, 1-(4-(2-(5-chloro-1H-indazol-7-yl)-1,1-difluoro-2-hydroxyethyl)piperidin-1-yl)-2-(1,1-dioxidotetrahydro-2H-thiopyran-4-yl)ethan-1-one], the half-inhibitory concentration (IC50) in experiment [1] is 0.0001 to 10 µM; in experiment [2] it was 0.0001 to 10 µM; in experiment [3] (24 hours), 0.0001 to 10 µM; in experiment [4] (24 hours), > 10 µM.

Consider `CCCNC(=O)N1CCC(C(C)(C)C(O)c2cc(Cl)cc3cn[nH]c23)CC1` (stereo not shown) [Compound P-0355, 4-(1-(5-chloro-1H-indazol-7-yl)-1-hydroxy-2-methylpropan-2-yl)-N-propylpiperidine-1-carboxamide], for which the IC50 in experiment [1], in experiment [2], in experiment [3] (24 hours incubation) and in experiment [4] (24 hours incubation) was 0.0001 to 10 µM in each case.

Turning to `COC(=O)N1CCC(C2(C(O)c3c(F)c(Cl)cc4cn[nH]c34)CC2)CC1` (stereo not shown) [Compound P-0160, methyl 4-(1-((5-chloro-6-fluoro-1H-indazol-7-yl)(hydroxy)methyl)cyclopropyl)piperidine-1-carboxylate], the 50% inhibitory concentration (IC50) in experiment [1], in experiment [2], in experiment [3] (24 hours incubation) and in experiment [4] (24 hours incubation) was 0.0001 to 10 µM throughout.

Turning to `OC(c1cc(F)cc2cn[nH]c12)C12CC3CC(CC(C3)C1)C2` (stereo not shown) [Compound P-0043, adamantan-1-yl(5-fluoro-1H-indazol-7-yl)methanol], the IC50 in experiment [1] was 0.0001 to 10 µM; in experiment [2], 0.0001 to 10 µM; in experiment [3] (24 hours incubation), 0.0001 to 10 µM; in experiment [4] (24 hours incubation), > 10 µM.

On to `CC1(C)CN(c2c3c(cc4cn[nH]c24)CC3)CCN1S(C)(=O)=O` [Compound P-0292, 7-(3,3-dimethyl-4-(methylsulfonyl)piperazin-1-yl)-5,6-dihydro-1H-cyclobuta[f]indazole], for which the IC50 in experiment [1], in experiment [2], in experiment [3] (24 hours incubation) and in experiment [4] (24 hours incubation) was 0.0001 to 10 µM throughout.

`O=C(NC1COC1)N1CCC(C(F)(F)C(O)c2cc(Cl)cc3cn[nH]c23)CC1` (stereo not shown) [Compound P-0464, 4-(2-(5-chloro-1H-indazol-7-yl)-1,1-difluoro-2-hydroxyethyl)-N-(oxetan-3-yl)piperidine-1-carboxamide]: the concentration for half-maximal inhibition (IC50) in experiment [1], in experiment [2], in experiment [3] (24 hours) and in experiment [4] (24 hours) was 0.0001 to 10 µM each time.

For the compound `CCC(=O)N1CCC(C(F)(F)C(O)c2c(F)c(Cl)cc3cn[nH]c23)CC1` (stereo not shown) [Compound P-0374, 1-(4-(2-(5-chloro-6-fluoro-1H-indazol-7-yl)-1,1-difluoro-2-hydroxyethyl)piperidin-1-yl) propan-1-one], the IC50 in experiment [1], in experiment [2], in experiment [3] (24 hours incubation) and in experiment [4] (24 hours incubation) was 0.0001 to 10 µM in each case.

For the compound `CC(C)(C1CCCCC1)C(O)c1c(F)c(Cl)c(F)c2cn[nH]c12` (stereo not shown) [Compound P-0253, 1-(5-chloro-4,6-difluoro-1H-indazol-7-yl)-2-cyclohexyl-2-methylpropan-1-ol], the concentration for half-maximal inhibition (IC50) in experiment [1], in experiment [2], in experiment [3] (24 hours incubation) and in experiment [4] (24 hours incubation) was 0.0001 to 10 µM each time.

For the compound `CC(C)(C1CCN(C(=O)Nc2ccc(F)nc2)CC1)[C@H](O)c1cc(Cl)cc2cn[nH]c12` [Compound P-0559, (S)-4-(1-(5-chloro-1H-indazol-7-yl)-1-hydroxy-2-methylpropan-2-yl)-N-(6-fluoropyridin-3-yl)piperidine-1-carboxamide], the IC50 in experiment [1], in experiment [2], in experiment [3] (24 hours) and in experiment [4] (24 hours) was 0.0001 to 10 µM each time.

For `CC(C)(C1CCN(C(=O)C2CCOCC2)CC1)[C@H](O)c1c(F)c(Cl)cc2cn[nH]c12` [Compound P-0507, (S)-(4-(1-(5-chloro-6-fluoro-1H-indazol-7-yl)-1-hydroxy-2-methylpropan-2-yl)piperidin-1-yl)(tetrahydro-2H-pyran-4-yl)methanone], the IC50 in experiment [1], in experiment [2], in experiment [3] (24 hours) and in experiment [4] (24 hours) was 0.0001 to 10 µM throughout.

On to `CNC(=O)N1CC2CCC(C1)C2CC(O)c1cc(Cl)cc2cn[nH]c12` (stereo not shown) [Compound P-0127, 8-(2-(5-chloro-1H-indazol-7-yl)-2-hydroxyethyl)-N-methyl-3-azabicyclo[3.2.l]octane-3-carboxamide], for which the IC50 in experiment [1], in experiment [2], in experiment [3] (24 hours incubation) and in experiment [4] (24 hours incubation) was 0.0001 to 10 µM each time.

`Cc1cc(C(O)C2(C)CCCCC2)c2[nH]ncc2c1` (stereo not shown) [Compound P-0014, (5-methyl-1H-indazol-7-yl)(1-methylcyclohexyl)methanol]: the concentration for half-maximal inhibition (IC50) in experiment [1], in experiment [2], in experiment [3] (24 hours incubation) and in experiment [4] (24 hours incubation) was 0.0001 to 10 µM each time.

Turning to `CC(C)(C1CCN(C(=O)NC2CCCC2)CC1)C(O)c1cc(Cl)cc2cn[nH]c12` (stereo not shown) [Compound P-0316, 4-(1-(5-chloro-1H-indazol-7-yl)-1-hydroxy-2-methylpropan-2-yl)-N-cyclopentylpiperidine-1-carboxamide], the IC50 in experiment [1], in experiment [2], in experiment [3] (24 hours incubation) and in experiment [4] (24 hours incubation) was 0.0001 to 10 µM throughout.

Consider `CC(C)(C1CCN(C(=O)NCS(C)(=O)=O)CC1)C(O)c1cc(Cl)cc2cn[nH]c12` (stereo not shown) [Compound P-0471, 4-(1-(5-chloro-1H-indazol-7-yl)-1-hydroxy-2-methylpropan-2-yl)-N-((methylsulfonyl)methyl)piperidine-1-carboxamide], for which the IC50 in experiment [1], in experiment [2], in experiment [3] (24 hours) and in experiment [4] (24 hours) was 0.0001 to 10 µM throughout.

For `CCNS(=O)(=O)N1CCC(C(F)(F)C(O)c2cc(Cl)cc3cn[nH]c23)CC1` (stereo not shown) [Compound P-0331, 4-(2-(5-chloro-1H-indazol-7-yl)-1,1-difluoro-2-hydroxyethyl)-N-ethylpiperidine-1-sulfonamide], the IC50 in experiment [1], in experiment [2], in experiment [3] (24 hours incubation) and in experiment [4] (24 hours incubation) was 0.0001 to 10 µM each time.

Take `OC1(c2cc(Cl)cc3cn[nH]c23)CC2(CCOCC2)C1` [Compound P-0029, 2-(5-chloro-1H-indazol-7-yl)-7-oxaspiro[3.5]nonan-2-ol]: the IC50 in experiment [1], in experiment [2], in experiment [3] (24 hours incubation) and in experiment [4] (24 hours incubation) was 0.0001 to 10 µM each time.

On to `OC(CC1CCCCC1)c1cc(Cl)cc2cn[nH]c12` (stereo not shown) [Compound P-0007, 1-(5-chloro-1H-indazol-7-yl)-2-cyclohexylethan-1-ol], for which the half-inhibitory concentration (IC50) in experiment [1], in experiment [2], in experiment [3] (24 hours incubation) and in experiment [4] (24 hours incubation) was 0.0001 to 10 µM each time.
